This is an account of results in ChEMBL document CHEMBL1122575, “Dependence of beta-lactamase stability on substructures within beta-lactam antibiotics” (J Med Chem, 1984).

In brackets after ≈: the same amount, converted by molar mass. Where only a bound is given, the exact number is not on record here.

Data set [1] concerns Escherichia coli. Briefly: Compound was evaluated for the antibacterial activity against Escherichia coli with strain NIHJ (beta-Lactamase-negative (LAC-). The data set is classed as functional.
The test system of data set [2] is Escherichia coli. In words: Compound was evaluated for the antibacterial activity against Escherichia coli (RTEM+ organism). The data set is classed as functional.
A short description of data set [3]: Relative Vmax was reported. The data set is classed as ADME.
Data set [4] deals with Escherichia coli. Briefly: Compound was evaluated for the relative Vmax against Escherichia coli with strain 609 (beta-Lactamase-positive (LAC+)). Format: ADME, organism-based.
Data set [5] concerns Escherichia coli. Briefly: Compound was evaluated for the antibacterial activity against Escherichia coli with strain 609 (beta-Lactamase-positive (LAC+)). Format: functional.
The test system of data set [6] is Escherichia coli. In words: Compound was evaluated for the antibacterial activity against Escherichia coli with strain NIHJ (beta-Lactamase-negative (LAC-)). Format: functional.
Data set [7] is described as follows: Compound was evaluated for the percentage remaining after 24 hr hydrolysis at a pH 7 at 37 degree Centigrade. As to conditions: buffer.
Data set [8] is described as follows: Compound was evaluated for the relative Vmax against RTEM enzyme. Format: ADME.
A short description of data set [9]: Relative hydrolysis rate (RHR) was evaluated against K1 enzyme. Format: ADME.
Data set [10] is described as follows: Relative hydrolysis rate (RHR) was evaluated against RTEM enzyme. Format: ADME.
Data set [11] has as its system Escherichia coli. Briefly: Compound was evaluated for the antibacterial activity against Escherichia coli (RTEM+organism) at 10E6 colony forming units. Format: functional.
In data set [12] the test system is Escherichia coli. In words: Compound was evaluated for the antibacterial activity against Escherichia coli (RTEM-organism) at 10e4/10e6 cfu; 0.1/0.2. The data set is classed as functional.
In data set [13] the test system is Klebsiella aerogenes. In words: Compound was evaluated for the antibacterial activity against Klebsiella aerogenes with strain K1+ at 10e4/10e6 cfu; 100/>100. Format: functional.
Data set [14] concerns Escherichia coli. Briefly: Compound was evaluated for the antibacterial activity against Escherichia coli (RTEM+organism) at 10e4/10e6 cfu; 0.4/1.6. Format: functional.
In data set [15] the test system is Klebsiella aerogenes. In words: Compound was evaluated for the antibacterial activity against Klebsiella aerogenes with strain K1- at 10e4/10e6 cfu; 0.2/0.2. Format: functional.
For data set [16], the system named is Enterobacter cloacae. Briefly: Compound was evaluated for the antibacterial activity against Enterobacter cloacae with the strains beta-Lactamase-positive (LAC+). Format: functional.
Data set [17] has as its system Escherichia coli. In words: Compound was evaluated for the antibacterial activity against Escherichia coli (RTEM-organism) at 10e4/10e6 cfu; 1.6/1.6. Format: functional.
The test system of data set [18] is Escherichia coli. In words: Compound was evaluated for the antibacterial activity against Escherichia coli (RTEM+organism) at 10e4/10e6 cfu; 0.8/3.1. Format: functional.
The test system of data set [19] is Staphylococcus aureus. Briefly: Relative hydrolysis rate (RHR) was evaluated against Staphylococcus aureus with strain PC1. The data set is classed as ADME, organism-based.
The test system of data set [20] is Staphylococcus aureus. Briefly: Compound was evaluated for the antibacterial activity against Staphylococcus aureus with strain beta-Lactamase-negative (LAC-). The data set is classed as functional.
The subject of data set [21] is Staphylococcus aureus. In words: Compound was evaluated for the antibacterial activity against Staphylococcus aureus with strain beta-Lactamase-positive (LAC+). Format: functional.
The subject of data set [22] is Escherichia coli. In words: Percentage zonal reduction was evaluated against Escherichia coli. Format: functional.
Data set [23] relates to Staphylococcus aureus. In words: Percentage zonal reduction was evaluated against Staphylococcus aureus. Format: functional.
In data set [24] the test system is Providencia rettgeri. Briefly: Compound was evaluated for the antibacterial activity against Providencia rettgeri with the strain beta-Lactamase-negative (LAC-). Format: functional.
For data set [25], the system named is Escherichia coli. In words: Relative hydrolysis rate (RHR) was evaluated against Escherichia coli with the strain RTEM. The data set is classed as ADME, organism-based.
The test system of data set [26] is Escherichia coli. Briefly: Compound was evaluated for the antibacterial activity against Escherichia coli with strain JC-S (beta-Lactamase-negative (LAC-)). Format: functional.
Data set [27] relates to Enterobacter cloacae. Briefly: Compound was evaluated for the antibacterial activity against Enterobacter cloacae with strain 233 (beta-Lactamase-positive (LAC+)). Format: functional.
The subject of data set [28] is Staphylococcus aureus. In words: Compound was evaluated for the antibacterial activity against Staphylococcus aureus with the strain 209P. The data set is classed as functional.
Data set [29] deals with Staphylococcus aureus. Briefly: Relative hydrolysis rate (RHR) was evaluated against Staphylococcus aureus with the strain FS108. The data set is classed as ADME, organism-based.

As for `CCCO[C@@]1(NC(=O)CSCC#N)C(=O)N2C(C(=O)O)=C(CSc3nnnn3C)CSC21` (stereo partly specified), the minimum inhibitory concentration (MIC) (in general, the least concentration at which growth counts as inhibited) in data set [1] is more than 200 µg/mL; in data set [2] it was 200 µg/mL (≈ 400 µM).

In turn, `CC1(C)SC2[C@H](NC(=O)c3ccccc3)C(=O)N2C1C(=O)O` (stereo partly specified) showed an RVmax in data set [3] of 2.

Turning to `CC(O)[C@@H]1C(=O)N2C(C(=O)O)=C(SCCN)SC12` (stereo partly specified), the RVmax in data set [4] is recorded as less than 0.1. For the same compound, the MIC is 25 µg/mL (≈ 86.1 µM) in data set [5] and 12.5 µg/mL (≈ 43 µM) in [6].

In the case of `CO[C@]1(NC(C)=O)CN(S(=O)(=O)[O-])C1=O.[K+]`, the amount remaining (commonly what is left of the initial amount, in per cent) at 24 h in data set [7] is less than 1%. The RVmax in data set [8] is on record as less than 0.01.

Turning to `CC(=O)OCC1=C(C(=O)O)N2C(=O)[C@@H](NC(=O)/C(=N\OCC(=O)O)c3csc(N)n3)C2SC1` (stereo partly specified), the RHR turned out to be 101 in data set [9] and 2111 in data set [10].

The compound `CO/N=C(\C(=O)N[C@@H]1C(=O)N2C(C(=O)O)=C(COC(C)=O)C[S@+]([O-])C12)c1csc(N)n1` (stereo partly specified) returned a minimal inhibitory concentration (MIC) in [11] of 0.1 µg/mL (≈ 0.212 µM). The compound also registered an RHR in data set [10] of 0.

Regarding `CO/N=C(/C(=O)N[C@@H]1C(=O)N(S(=O)(=O)[O-])[C@H]1C)c1csc(N)n1.[K+]`, the MIC in data set [12] was 0.1 µg/mL; in data set [13] it was 100 µg/mL; in data set [14] it was 0.4 µg/mL; in data set [15] it was 0.2 µg/mL. The RHR in [9] came to 20; in [10], 1.

In data set [4], `NCCSC1=C(C(=O)O)N2C(=O)[C@@H](CO)C2S1` (stereo partly specified) showed an RVmax of 10. Also, the minimal inhibitory concentration (MIC) in [5] is 25 µg/mL (≈ 90.5 µM); in [6], 3.1 µg/mL (≈ 11.2 µM).

Take `CO/N=C(\C(=O)N[C@@H]1C(=O)N2C(C(=O)O)=C(COC(C)=O)CS[C@H]12)c1csc(N)n1` [CEFOTAXIME]: the RHR in data set [9] and in [10] was 100 each time.

`Cn1nnnc1SCC1=C(C(=O)O)N2C(=O)[C@@H](NC(=O)Cc3csc(N)n3)C2SC1` (stereo partly specified) registered an MIC in [16] of more than 100 µg/mL.

`CO/N=C(\C(=O)N[C@@H]1C(=O)N2C(C(=O)O)=C(COC(C)=O)CSC12)c1csc(N)n1` (stereo partly specified) yielded a minimal inhibitory concentration (MIC) in data set [11] of 0.1 µg/mL (≈ 0.22 µM). For the same compound, the RHR in [10] came out at 100.

Regarding `CC(C)(O/N=C(/C(=O)N[C@H]1CN(C(=O)NS(C)(=O)=O)C1=O)c1csc(N)n1)C(=O)[O-].[K+]`, the MIC in [17] stood at 1.6 µg/mL; in [18], 0.8 µg/mL.

As for `C[C@H]1[C@H](NC(=O)CSc2cc(Cl)nc(Cl)c2)C(=O)N1OS(=O)(=O)[O-].[K+]`, in data set [19], the RHR was 2.6. Also, the MIC is 0.2 µg/mL in data set [20] and 6.3 µg/mL in data set [21].

Compound `O=C(CSc1cc(Cl)nc(Cl)c1)N[C@H]1CN(OS(=O)(=O)[O-])C1=O.[K+]` came in with an RHR in data set [19] of less than 0.5. The values for the MIC in [20] and in data set [21] were 0.1 µg/mL and 0.2 µg/mL, respectively.

For the compound `CC1=C(C(=O)O)N2C(=O)[C@@H](NC(=O)[C@@H](N)C3=CCC=CC3)C2SC1` (stereo partly specified), the Zone reduction turned out to be 12% in [22] and 25% in [23].

On to `CO/N=C(\C(=O)NC1CN(S(=O)(=O)[O-])C1=O)c1csc(N)n1.[K+]` (stereo unspecified), for which the MIC in [24] was more than 100 µg/mL. This compound also registered an RHR in [25] of less than 0.02.

As for `CC(=O)OCC1=C(C(=O)O)N2C(=O)[C@@H](NC(=O)/C(=N/OCC(=O)O)c3csc(N)n3)C2SC1` (stereo partly specified), the RHR is given as 3 in data set [9] and less than 0.1 in data set [10].

As to `CO[C@@]1(NC(=O)C(C(=O)O)c2ccc(O)cc2)C(=O)N2C(C(=O)O)=C(CSc3nnnn3C)COC21` (stereo partly specified), the figures for the minimal inhibitory concentration (MIC) in [2], in [26] and in [27] were 0.4 µg/mL (≈ 0.769 µM), 0.2 µg/mL (≈ 0.384 µM) and 0.2 µg/mL (≈ 0.384 µM), respectively.

Consider `CC1(C)SC2[C@@H](NC(=O)Cc3ccccc3)C(=O)N2C1C(=O)O` (stereo partly specified), for which it took 1.6 µg/mL (≈ 4.78 µM) to inhibit growth in [28] (MIC). This compound came in with an RHR in data set [29] of 2.2.

In data set [16], `CO/N=C(/C(=O)N[C@@H]1C(=O)N2C(C(=O)O)=C(CSc3nnnn3C)CSC12)c1csc(N)n1` (stereo partly specified) yielded an MIC of 1.6 µg/mL (≈ 3.13 µM).
